In one assay the test system is CFA-induced pain model. In words: Antiallodynic activity on Complete Freund's Adjuvant (CFA)-induced inflammatory pain model (von Frey). The class given is in vivo, Sprague-Dawley rats. The following applies: ip; rat, intraperitoneal, von Frey, 0.5 h.
Another assay deals with STZ-induced pain model. In words: Antiallodynic activity on streptozotocin (STZ)-induced diabetic pain model (von Frey). It counts as in vivo, Sprague-Dawley rats. The following applies: ip, rat, intraperitoneal, 0.5 h. How it is done:
Male, Sprague-Dawley rats (200-220 g, Nara Bio, Korea) were habituated for 1 week before surgery and allowed free access to food and water throughout the experimentation. Room temperature and humidity were maintained at 24±2° C. and 50±10%, respectively.
STZ-induced diabetic pain model was established with a modified method of Rakieten et al. (1963) and Bertrand Aubel et al. (2004). All animals were fasted 4 to 6 hr prior to STZ injection. STZ (sigma, USA) was dissolved in 20 mM sodium citrate buffer, pH 5.5 (sigma, USA) and intraperitoneally injected at 75 mg/kg, 4 ul/g, bw into the rats. […]
Tactile sensitivity (Mechanical allodynia) was evaluated using von Frey monofilaments before and after treatment of the compound of Examples and animals were used withdrawal threshold value was less than 4 g. […] The tactile sensitivity for ipsilateral hind paw was measured using the up-and-down method (Dixon, 1980) with seven von Frey monofilaments (0.4, 1, 2, 4, 6, 8, and 15 g) to 3 trials. […] The 50% paw withdrawal threshold for each paw was calculated using the following formula: [Xth] log=[vFr] log+ky where [vFr] is the force of the last von Frey used k=0.2249 which is the average interval (in log units) between the von Frey monofilaments, and y is a value that depends upon the pattern of withdrawal responses (Dixon, 1980). […]

Assay [1] deals with hot plate withdrawal latency. In words: Hot-plate test. It counts as in vivo, ICR mice. The following applies: 200 mg/kg, mouse, oral. The procedure: To examine the pain relief effect of the sulfamate derivative compounds, a hot-plate test was conducted in general pain animal model referring to Current Protocols in Neuroscience; Behavioral Neuroscience Unit 8.9.
ICR mice (male, 30-35 g: Orient Bio, Korea) were habituated before test in test room for 1 hour. Animals were fasted 2 hr before administration of compounds. […] All compounds were dissolved in a vehicle of 30% (v/v) PEG 400 or 20% (v/v) Tween 80. The control group was treated the vehicle without compounds.
[…] (Hu, X. et al, 2008), and then, measured as the withdrawal latency (cut-off time: 30 sec) time until the point when each mouse was taking off a paw from the plate, shaking, licking a paw or hind leg, or jumping from the plate.
On the technique in general: Thermal pain tests record how soon the animal reacts.

Assay [2] concerns tail-flick withdrawal latency. In words: Tail-flick test. It counts as in vivo, ICR mice. The following applies: mouse, oral. How it is done: To examine the pain relief effect of the sulfamate compounds, a tail-flick test was conducted in general pain animal model referring to Current Protocols in Neuroscience; Behavioral Neuroscience Unit 8.9.
ICR mice (male, 25-30 g; Orient Bio, Korea) were habituated before test in test room for 1 hour. Animals were fasted 2 hr before administration of compounds. Each of Compound was orally administered at the close of 150 mg/kg, 10 ul/g, bw (n=7˜10/group). All compounds were dissolved in a vehicle of 30% (v/v) PEG 400 or 20% (v/v) Tween 80. The control group was treated the vehicle without compounds.
After the administration of compounds, the mice tail were put on a tail-flick analgesia meter. To avoid tissue damage, maximal exposure time to pain stimuli was restricted to 15 s. The withdrawal latency was measured as the time to the point when each mouse response to the stimulus. The relative values compared to the control (% control) were calculated.
The relative values compared to the sham were calculated and shown in Table 12, which show effect of the compound of examples on tail-flick test in […].

The results in this text go back to patent US9834535B2, “Sulfamate derivative compounds for use in treating or alleviating pain” (Bio-Pharm Solutions Co., Ltd., priority 2013, dated 2017).

Where only a bound is given, the exact number is not on record here.

What is called ED50 is the dose that gives a 50% effect, or the effect in half of the subjects. Take `CC1(C)O[C@@H](COS(N)(=O)=O)[C@H](c2ccccc2Cl)O1` [Example 2, ((4S,5S)-5-(2-chlorophenyl)-2,2-dimethyl-1,3-dioxolan-4-yl)methyl sulfamate]: the ED50 with CFA-induced pain model turned out to be 5.9 mg/kg; in the assay with STZ-induced pain model, 7.9 mg/kg. For the same compound, the “Hot plate test: effect (%) at the concentration administered” value in assay [1] was “^#200 (123.6%)”. The compound also yielded a tail-flick test: dose in assay [2] above 200 mg/kg.
